Consider 32 molecules from patent publication US9828350B2, “5,6-dihydro-2H-[1,4]oxazin-3-yl-amine derivatives useful as inhibitors of beta-secretase (BACE)” (Janssen Pharmaceutica NV, priority 2010, dated 2017).

Assay [1] deals with recombinant BACE1 protein (Homo sapiens, UniProt P56817). Briefly: Biochemical FRET based assay. Conditions: recombinant BACE1 1 μg/ml, 120 minutes at room temperature, pH 5.0; for IC50: read-out: Biochemical FRET based assay pIC50 (converted). In outline:
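Proteolysis was read as the rise in donor fluorescence (320 nm excitation, 405 nm emission) from T0 to T120, expressed in RFU. The reaction ran 120 minutes at room temperature at pH 5.0 in citrate buffer with 4% DMSO, using […] quenched Swedish APP peptide and 1 μg/ml BACE1.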

In another assay the test system is Abeta total. Briefly: Cellular αLisa assay in SKNBE2 cells, Abeta total. The assay is classed as cell-based, human. Conditions: incubated for 18 hours; for IC50: Homo sapiens, SKNBE2, 18 h, read-out: Cellular αLisa assay in SKNBE2 cells Abetatotal pIC50 (converted). The essentials: (§1)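 Secreted Abeta levels were measured by sandwich αLisa, pairing biotin-AbN/25 donor beads with Ab4G8 acceptor beads for total Abeta or cAb42/26 for Abeta 1-42, read at 615 nm after 650 nm excitation following 1 hour. Cells were SKNBE2 expressing wild-type hAPP695, exposed to compound for 18 hours.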

Another assay has as its system Abeta 1-42. Briefly: Cellular αLisa assay in SKNBE2 cells, Abeta 1-42. Conditions: incubated for 18 hours; for IC50: Homo sapiens, SKNBE2, 18 h, read-out: Cellular αLisa assay in SKNBE2 cells Abeta 42 pIC50 (converted). The assay is classed as cell-based, human. In outline: as §1

A value given as a limit tells only on which side of the number the result lay.

Sequence of recombinant BACE1 protein (P56817 46-501): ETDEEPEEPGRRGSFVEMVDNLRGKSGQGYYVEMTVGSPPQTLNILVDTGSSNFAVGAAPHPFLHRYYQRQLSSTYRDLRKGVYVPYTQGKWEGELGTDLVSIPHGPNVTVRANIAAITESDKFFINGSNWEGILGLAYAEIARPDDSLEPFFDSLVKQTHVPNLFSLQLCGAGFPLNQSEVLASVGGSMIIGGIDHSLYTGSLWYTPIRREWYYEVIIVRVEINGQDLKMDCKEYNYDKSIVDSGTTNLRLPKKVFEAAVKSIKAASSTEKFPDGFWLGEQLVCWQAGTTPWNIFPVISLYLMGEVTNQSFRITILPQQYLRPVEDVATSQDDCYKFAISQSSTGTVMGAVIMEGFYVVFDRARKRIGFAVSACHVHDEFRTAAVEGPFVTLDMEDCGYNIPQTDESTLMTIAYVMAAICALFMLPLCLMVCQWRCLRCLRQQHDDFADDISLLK

Take `N#Cc1ccc(C(=O)Nc2cccc(C3(C4CC4)N=C(N)COC3(F)C(F)(F)F)c2)nc1` (stereo not drawn) [Compound 198]: in assay [1], the “Biochemical FRET based assay pIC50” value is reported as 6.52. Also, the “Cellular αLisa assay in SKNBE2 cells Abetatotal pIC50” value in the assay on Abeta total stood at 6.69. Besides, the “Cellular αLisa assay in SKNBE2 cells Abeta 42 pIC50” value in the assay on Abeta 1-42 worked out at 6.7.

In the case of `CC1(c2cc(-c3cncnc3)ccc2F)N=C(N)COC1F` (single isomer, unassigned) [Compound 127], in assay [1], the IC50 is greater than 30200 nM. Also, the “Cellular αLisa assay in SKNBE2 cells Abetatotal pIC50” value in the assay on Abeta total is given as less than 5. The “Cellular αLisa assay in SKNBE2 cells Abeta 42 pIC50” value with Abeta 1-42 is listed as less than 5.

As to `CC1(c2cc(NC(=O)c3ncc(Cl)cc3Cl)ccc2F)N=C(N)COC1F` (stereo not drawn) [Compound 78], the IC50 in assay [1] is 55 nM; in the assay on Abeta total, 8.51 nM; with Abeta 1-42, 11.7 nM.

`CC1(c2cccc(-c3cncc(C#N)c3)c2)N=C(N)COC1C(F)(F)F` (single isomer, unassigned) [Compound 207]: in assay [1], the IC50 is 3470 nM. Also, the “Cellular αLisa assay in SKNBE2 cells Abetatotal pIC50” value in the assay on Abeta total came out at 6.24. Moreover, the “Cellular αLisa assay in SKNBE2 cells Abeta 42 pIC50” value in the assay with Abeta 1-42 is listed as 6.33.

Regarding `CC1(c2cccc(NC(=O)c3ccncn3)c2)N=C(N)COC1(F)C(F)(F)F` (single isomer, unassigned) [Compound 190], in assay [1], the IC50 is greater than 30200 nM. Moreover, the “Cellular αLisa assay in SKNBE2 cells Abetatotal pIC50” value in the assay with Abeta total is 5.25. Moreover, the “Cellular αLisa assay in SKNBE2 cells Abeta 42 pIC50” value in the assay with Abeta 1-42 was determined as 5.2.

With `CC1(c2cc(NC(=O)c3ccc(Cl)cn3)c(F)cc2F)COCC(N)=N1` (racemic) [Compound 60], the “Biochemical FRET based assay pIC50” value in assay [1] was determined as 5.65. Besides, in the assay on Abeta total, the “Cellular αLisa assay in SKNBE2 cells Abetatotal pIC50” value is recorded as 6.92. In the assay with Abeta 1-42, the “Cellular αLisa assay in SKNBE2 cells Abeta 42 pIC50” value is 6.89.

Regarding `COc1cncc(-c2cccc(C3(C)N=C(N)COC3(F)C(F)(F)F)c2)c1` (single isomer, unassigned) [Compound 142], the IC50 in assay [1] was greater than 30200 nM. Moreover, in the assay with Abeta total, the “Cellular αLisa assay in SKNBE2 cells Abetatotal pIC50” value was less than 5. Also, in the assay on Abeta 1-42, the “Cellular αLisa assay in SKNBE2 cells Abeta 42 pIC50” value was less than 5.

Take `COc1ccc(C(=O)Nc2ccc(F)c([C@@]3(C4CC4)N=C(N)CO[C@H]3C(F)(F)F)c2)nc1` [Compound 231]: the IC50 in assay [1] was 33.9 nM; in the assay with Abeta total, 11.7 nM; in the assay on Abeta 1-42 it was 12.3 nM.

As to `C[C@]1(c2cccc(NC(=O)c3ncc(Cl)cc3Cl)c2)N=C(N)CO[C@]1(F)C(F)(F)F` [Compound 242], the IC50 in assay [1] is 20.4 nM; with Abeta total, 12.3 nM; with Abeta 1-42, 12.3 nM.

`CCC1(c2cc(-c3cncc(C#N)c3)ccc2F)N=C(N)COC1C(F)(F)F` (stereo not drawn) [Compound 310]: the IC50 in assay [1] was 3310 nM; in the assay with Abeta total, 617 nM; with Abeta 1-42, 776 nM.

In the case of `CC1(c2cc(NC(=O)c3ccc(Cl)s3)ccc2F)COCC(N)=N1` (stereo not drawn) [Compound 29], in assay [1], the “Biochemical FRET based assay pIC50” value was determined as 6.11. For the same molecule, the “Cellular αLisa assay in SKNBE2 cells Abetatotal pIC50” value with Abeta total was 6.67. The “Cellular αLisa assay in SKNBE2 cells Abeta 42 pIC50” value in the assay on Abeta 1-42 was 6.67.

On to `CC1(c2cccc(NC(=O)c3ccc(Cl)cn3)c2)COC(F)(C(F)(F)F)C(N)=N1` (single isomer, unassigned) [Compound 70], for which, in assay [1], the “Biochemical FRET based assay pIC50” value worked out at 5.77. In the assay on Abeta total, the “Cellular αLisa assay in SKNBE2 cells Abetatotal pIC50” value amounted to 5.31. For the same molecule, the “Cellular αLisa assay in SKNBE2 cells Abeta 42 pIC50” value in the assay with Abeta 1-42 is reported as 5.17.

For `C[C@@]1(c2cccc(NC(=O)c3ccc(Cl)cn3)c2)N=C(N)CO[C@H]1F` (racemic) [Compound 91, trans-rac-N-[3-(5-amino-2-fluoro-3-methyl-3,6-dihydro-2H-1,4-oxazin-3-yl)phenyl]-5-chloropyridine-2-carboxamide], the “Biochemical FRET based assay pIC50” value in assay [1] was 7.03. For the same molecule, the “Cellular αLisa assay in SKNBE2 cells Abetatotal pIC50” value with Abeta total was determined as 7.86. Further, in the assay on Abeta 1-42, the “Cellular αLisa assay in SKNBE2 cells Abeta 42 pIC50” value is listed as 7.82.

As for `CC1(c2cccc(NC(=O)c3ccc(Cl)cn3)c2)COC(F)(C(F)(F)F)C(N)=N1` (single isomer, unassigned) [Compound 15, (R*,R*)—N-{3-[5-amino-6-fluoro-3-methyl-6-(trifluoromethyl)-3,6-dihydro-2H-1,4-oxazin-3-yl]phenyl}-5-chloropyridine-2-carboxamide], the IC50 was 2750 nM in assay [1], 3090 nM in the assay with Abeta total and 490 nM in the assay on Abeta 1-42.

For `C[C@@]1(c2cccc(-c3cncnc3)c2)CO[C@@](C)(C(F)(F)F)C(N)=N1` (racemic) [Compound 161, trans-rac-2,5-dimethyl-5-(3-pyrimidin-5-ylphenyl)-2-(trifluoromethyl)-5,6-dihydro-2H-1,4-oxazin-3-amine], in assay [1], the “Biochemical FRET based assay pIC50” value was 4.53. Further, the “Cellular αLisa assay in SKNBE2 cells Abetatotal pIC50” value in the assay with Abeta total is less than 5. The “Cellular αLisa assay in SKNBE2 cells Abeta 42 pIC50” value in the assay with Abeta 1-42 is listed as less than 5.

As to `CC1(c2cccc(-c3cncc(C#N)c3)c2)N=C(N)COC1C(F)(F)F` (single isomer, unassigned) [Compound 206], the IC50 in assay [1] was greater than 30200 nM. For the same molecule, the “Cellular αLisa assay in SKNBE2 cells Abetatotal pIC50” value in the assay on Abeta total is listed as less than 5. Further, in the assay with Abeta 1-42, the “Cellular αLisa assay in SKNBE2 cells Abeta 42 pIC50” value is on record as less than 5.

Consider `CC1(c2cc(-c3cncc(C#N)c3)ccc2F)N=C(N)COC1C(F)(F)F` (single isomer, unassigned) [Compound 265], for which the IC50 in assay [1] is 525 nM. In addition, the “Cellular αLisa assay in SKNBE2 cells Abetatotal pIC50” value with Abeta total turned out to be 7.16. In addition, in the assay on Abeta 1-42, the “Cellular αLisa assay in SKNBE2 cells Abeta 42 pIC50” value turned out to be 7.16.

Turning to `CC1(c2cccc(NC(=O)c3ccc(C#N)cn3)c2)COCC(N)=N1` (single isomer, unassigned) [Compound 49], the “Biochemical FRET based assay pIC50” value in assay [1] was 4.6. Moreover, the “Cellular αLisa assay in SKNBE2 cells Abetatotal pIC50” value in the assay on Abeta total was 5.66. The “Cellular αLisa assay in SKNBE2 cells Abeta 42 pIC50” value in the assay on Abeta 1-42 stood at 5.68.

Take `CC1(c2cc(-c3cncc(Cl)c3)c(F)cc2F)COCC(N)=N1` (stereo not drawn) [Compound 23]: in assay [1], the “Biochemical FRET based assay pIC50” value stood at 5.86. Also, the “Cellular αLisa assay in SKNBE2 cells Abetatotal pIC50” value in the assay on Abeta total stood at 6.85. Moreover, in the assay with Abeta 1-42, the “Cellular αLisa assay in SKNBE2 cells Abeta 42 pIC50” value was determined as 6.89.

As for `COc1ccc(C(=O)Nc2ccc(F)c([C@@]3(C)N=C(N)CO[C@]3(F)C(F)(F)F)c2)nc1` [Compound 304], the IC50 was 589 nM in assay [1], 339 nM in the assay with Abeta total and 363 nM in the assay with Abeta 1-42.

With `COc1cncc(-c2cccc(C3(C)N=C(N)COC3F)c2)c1` (single isomer, unassigned) [Compound 92], the IC50 in assay [1] is 15100 nM. In addition, the “Cellular αLisa assay in SKNBE2 cells Abetatotal pIC50” value in the assay with Abeta total is 5.51. In addition, the “Cellular αLisa assay in SKNBE2 cells Abeta 42 pIC50” value in the assay on Abeta 1-42 came to 5.47.

With `C[C@@]1(c2cc(-c3cncnc3)c(F)cc2F)COC2(CC2)C(N)=N1` [Compound 150], the IC50 in assay [1] is 1100 nM; with Abeta total it was 200 nM; with Abeta 1-42, 200 nM.

On to `Cc1cc(Cl)cnc1C(=O)Nc1ccc(F)c([C@]2(C)COCC(N)=N2)c1` [Compound 143], for which the “Biochemical FRET based assay pIC50” value in assay [1] is recorded as 7.48. For the same molecule, the “Cellular αLisa assay in SKNBE2 cells Abetatotal pIC50” value in the assay on Abeta total is 8.36. Also, in the assay on Abeta 1-42, the “Cellular αLisa assay in SKNBE2 cells Abeta 42 pIC50” value turned out to be 8.35.

`CC1(c2cc(-c3cncnc3)ccc2F)N=C(N)COC1C(F)(F)F` (single isomer, unassigned) [Compound 268]: the IC50 in assay [1] was 363 nM. Moreover, in the assay on Abeta total, the “Cellular αLisa assay in SKNBE2 cells Abetatotal pIC50” value is on record as 7.09. Also, the “Cellular αLisa assay in SKNBE2 cells Abeta 42 pIC50” value in the assay on Abeta 1-42 amounted to 7.

As for `N#Cc1ccc(C(=O)Nc2cccc(C3(C4CC4)N=C(N)COC3C(F)(F)F)c2)nc1` (stereo not drawn) [Compound 226], the “Biochemical FRET based assay pIC50” value in assay [1] was found to be 6.86. Moreover, the “Cellular αLisa assay in SKNBE2 cells Abetatotal pIC50” value in the assay on Abeta total was 7.47. Besides, in the assay on Abeta 1-42, the “Cellular αLisa assay in SKNBE2 cells Abeta 42 pIC50” value was determined as 7.41.

Take `NC1=N[C@@](c2cccc(NC(=O)c3ncc(Cl)cc3Cl)c2)(C2CC2)[C@H](F)OC1` [Compound 276]: the results for the IC50 (in assay [1]; in the assay with Abeta total; in the assay on Abeta 1-42) were 174 nM, 41.7 nM and 41.7 nM, respectively.

As to `COc1cnc(C(=O)Nc2cccc(C3(C)COC(F)(C(F)(F)F)C(N)=N3)c2)cn1` (single isomer, unassigned) [Compound 158], the values for the IC50 (in assay [1]; in the assay on Abeta total; with Abeta 1-42) were greater than 30200 nM, greater than 10000 nM and greater than 10000 nM, respectively.

As for `C[C@]1(c2cc(-c3cncc(C#N)c3)c(F)cc2F)N=C(N)CO[C@H]1C(F)(F)F` [Compound 351], the IC50 in assay [1] was 2040 nM; in the assay with Abeta total, 468 nM; in the assay with Abeta 1-42, 550 nM.

Take `CC1(c2cccc(NC(=O)c3ncc(Cl)cc3F)c2)N=C(N)COC1F` (single isomer, unassigned) [Compound 164]: the IC50 in assay [1] was greater than 30200 nM. For the same molecule, in the assay with Abeta total, the “Cellular αLisa assay in SKNBE2 cells Abetatotal pIC50” value was less than 5. In addition, the “Cellular αLisa assay in SKNBE2 cells Abeta 42 pIC50” value in the assay on Abeta 1-42 is less than 5.

As for `Cc1ccc(C(=O)Nc2ccc(F)c(C3(C)COCC(N)=N3)c2)nc1` (stereo not drawn) [Compound 24], in assay [1], the “Biochemical FRET based assay pIC50” value was 6.77. Also, the “Cellular αLisa assay in SKNBE2 cells Abetatotal pIC50” value in the assay with Abeta total came out at 7.73. Besides, the “Cellular αLisa assay in SKNBE2 cells Abeta 42 pIC50” value in the assay with Abeta 1-42 is listed as 7.77.

Regarding `COc1cncc(-c2cccc(C3(C)N=C(N)COC3F)c2)c1` (single isomer, unassigned) [Compound 89], in assay [1], the IC50 was 5500 nM. In addition, the “Cellular αLisa assay in SKNBE2 cells Abetatotal pIC50” value with Abeta total came out at 6.67. Also, the “Cellular αLisa assay in SKNBE2 cells Abeta 42 pIC50” value in the assay with Abeta 1-42 is 6.51.

As to `Cc1cc(Br)cnc1C(=O)Nc1cccc([C@@]2(C3CC3)N=C(N)CO[C@@H]2F)c1` [Compound 313], the values for the IC50 (in assay [1]; in the assay with Abeta total; in the assay on Abeta 1-42) were 16.6 nM, 13.5 nM and 17.8 nM, respectively.
